In patent US4256764A, “Process for making derivatives of dimers of isoeugenol” (PLC Pharmaceutical Licenses Co. Ltd., priority 1978, dated 1981):

Key:
[1] = test system: experimental liver damage; experiment: hexobarbitone sleep test (experimental liver damage by carbon tetrachloride); assay type: in vivo; details: rats
Method: A standard testing process for pharmacological effect for experimental liver damage is the hexobarbitone sleep test, whose execution is described among others in a work by G. Vogel et al. in the Arzneimittelforschung, volume 25 (1975), pp. 82-89 and pp. 179-188. For this purpose 100 mg/kg of the compound to be tested were given to rats in groups each of 15 animals in carboxymethyl cellulose intraperitoneally and 90 minutes later 0.3 ml/kg carbon tetrachloride in olive oil by means of a throat probe. The rats were anaesthetised 48 hours later by intraperitoneal dosing of 70 mg/kg of hexabarbitone and the sleep duration was determined: […]

[2] = test system: serum enzymes GOT and GPT; experiment: galactosamine test (liver protection, serum enzymes GOT and GPT); assay type: in vivo; details: rats
Method: (§1) These tests have been described in the already-quoted work by G. Vogel et al. published in Arzneimittelforschung, volume 25 (1975), pages 82 to 89 and 179 to 188.
In the galactosamine tests the rats received in groups each of 15 animals 100 mg/kg of the compound to be tested N-(5-(trans-2,3-dihydro-7-methoxy-3-methyl-5-(E)-propenylbenzofuran-2-yl)- 2-hydroxy-3-methoxy-phenylmethyl)-N-(2-hydroxyethyl)-N-methyl-ammonium chloride and for comparison purposes Silymarine in the tragacanth suspension perorally, one hour later interperitoneally 350 mg/kg of galactosamine hydrochloride and 24 hours later blood samples were taken for determining the serum enzymes GOT and GPT.

mice = experiment: α amanitine test (mortality); assay type: in vivo; details: 20 per group, 50 mg/kg i.v., 0.7 mg/kg α amanitine i.p. 1 h later, observed 7 days
Method: as §1
In the α amanitine test the mice received in groups of 20 animals each 50 mg/kg of N-(5-(trans-2,3-dihydro-7-methoxy-3-methyl-5-(E)-propenylbenzofuran-2-yl)-2--hydroxy-3-methoxyphenyl-methyl)-N) (2-hydroxyethyl)-N-methyl ammonium chloride and for comparison Silymarine intravenously and an hour later 0.7 mg/kg of α amanitine intraperitoneally.

[3] = toxicologic investigations (LD50); details: rat, in vivo, po; rats, peroral application
From the text: The toxicologic investigations indicate a good compatibility of the compounds produced by the process according to the invention.

[4] = 100 mg/kg perorally, enzyme GPT
[5] = 15 per group, 100 mg/kg perorally in tragacanth suspension, 350 mg/kg galactosamine hydrochloride i.p. 1 h later, blood samples 24 h later

Structure (SMILES) | statistical significance of the effect (sleep duration) ([1]; 100 mg/kg i.p., carbon tetrachloride) | sleep duration ([1]; 15 per group, 100 mg/kg i.p. in carboxymethyl cellulose, 0.3 ml/kg carbon tetrachloride 90 min later, 70 mg/kg hexobarbitone i.p. after 48 h) | effect on GPT compared with Silymarine [2, 4] | statistical significance of the effect on GPT [2, 4] | GOT [2, 5] | GPT [2, 5] | mortality rate (mice) | LD50 [3]
C/C=C/c1cc(OC)c2c(c1)[C@@H](C)[C@H](c1ccc(O)c(OC)c1)O2 (relative stereo) [dehydrodiisoeugenol, trans-2,3-dihydro-2-(4-hydroxy-3-methoxyphenyl)-7-methoxy-3-methyl-5-(E)-propenylbenzofurane] | highly significant | 97 min | – | – | – | – | – | –
C/C=C/c1cc(OC)c2c(c1)[C@@H](C)[C@H](c1cc(CN(C)CCO)c(O)c(OC)c1)O2.Cl (relative stereo) [N-(5-(trans-2,3-dihydro-7-methoxy-3-methyl-5-(E)-propenylbenzofuran-2-yl)-2-hydroxy-3-methoxy-phenylmethyl)-N-(2-hydroxyethyl)-N-methyl-ammonium chloride] | – | – | clearly better than that of Silymarine | highly significant | 422 | 185 | 20% | 4000 to 16000 mg/kg
